The text below walks through data of patent US8901125B2, “Substituted bicyclic alkoxy pyrazole analogs as allosteric modulators of mGluR5 receptors” (Vanderbilt University, priority 2012, dated 2014).

The structures appear in SMILES notation.

Data set [1] concerns the target human mGluR5a receptor (Homo sapiens, UniProt P41594). Kind of data set: Cell-based functional assay (Ca2+ mobilization, FDSS), potentiation of glutamate EC20 response. The following applies: H10H cell line; for Emax: maximum % effect in the concentration-response curve as percent of maximal glutamate response, glutamate EC20; for EC50: potentiation in presence of glutamate EC20, concentration in mol/L. An excerpt:
Human mGluR5a cDNA in pCMV6-XL6 mammalian expression plasmid was purchased from OriGene Technologies, Inc. (catalogue number SC326357) and subcloned into pcDNA3.1(−). Human embryonic kidney (HEK)293A cells were then transfected with human mGluR5a pcDNA3.1(−) using LipofectAmine-2000 (Invitrogen) and monoclones were selected and tested for functional response using a Ca^2+ mobilization assay. Monoclones were named for the species (“H” for human) plus the location on the plate (e.g. “10H”).
HEK cells transfected with the human mGluR5a receptor (H10H or H12H cell line) were plated at 15,000 cells/well in clear-bottomed poly-D-lysinecoated assay plates (BD Falcon) in glutamate-glutamine-free growth medium and incubated overnight at 37° C. and 5% CO2. Cell-lines used were either the H10H or H12H cell-lines expressing the human mGluR5 receptor. The following day, the growth medium was removed and the cells were washed with assay buffer containing 1× Hank's balanced salt solution (Invitrogen, Carlsbad, Calif.), 20 mM HEPES, 2.5 mM probenecid, pH 7.4 and left with 20 μL of this reagent. Following this step, the cells were loaded with calcium indicator dye, fluo-4 AM, to a final concentration of 2 μM and incubated for 40-45 min at 37° C. The dye solution was removed and replaced with assay buffer. Cell plates were held for 10-15 min at room temperature and were then loaded into the Functional Drug Screening System 6000 (FDSS 6000, Hamamatsu, Japan).
After establishment of a fluorescence baseline for about 3 seconds, the compounds of the present invention were added to the cells, and the response in cells was measured. 2.3 minutes later an EC20 concentration of the mGluR5 receptor agonist glutamate was added to the cells, and the response of the cells was measured for about 1.7 minutes. All test compounds were dissolved and diluted to a concentration of 10 mM in 100% DMSO and then serially diluted into assay buffer for a 2× stock solution in 0.6% DMSO; stock compounds were then added to the assay for a final DMSO concentration of 0.3% after the first addition to the assay well. Calcium fluorescence measures were recorded as fold over basal fluorescence; raw data was then normalized to the maximal response to glutamate. Potentiation of the agonist response of the mGluR5 receptor in the present invention was observed as an increase in response to submaximal concentrations of glutamate in the presence of compound compared to the response to glutamate in the absence of compound.
The concentration-response curves of compounds of the present invention, obtained in the presence of EC20 of mGluR5 receptor agonist glutamate to determine positive allosteric modulation, were generated using Microsoft Excel with IDBS XLFit add-ins. The raw data file containing all time points was used as the data source in the analysis template. This was saved by the FDSS as a tab-delimited text file. Data were normalized using a static ratio function (F/F0) for each measurement of the total 350 values per well divided by each well's initial value. Data was then reduced as to peak amplitudes (Max Initial Min) using a time range that starts approximately 1 second after the glutamate EC20 addition and continues for approximately 40 seconds. This is sufficient time to capture the peak amplitude of the cellular Calcium response. Individual amplitudes were expressed as % EMax by multiplying each amplitude by 100 and then dividing the product by the mean of the amplitudes derived from the glutamate ECMax-treated wells. pEC50 values for test compounds were generated by fitting the normalized values versus the log of the test compound concentration (in mol/L) using a 4 parameter logistic equation where none of the parameters were fixed. Each of the three values collected at each concentration of test compound were weighted evenly. Individual values falling outside the 95% prediction limits of the curve fit were automatically excluded from the fit. […]

Sequence of human mGluR5a receptor (P41594 21-1180 isoform P41594-2 limits assumed): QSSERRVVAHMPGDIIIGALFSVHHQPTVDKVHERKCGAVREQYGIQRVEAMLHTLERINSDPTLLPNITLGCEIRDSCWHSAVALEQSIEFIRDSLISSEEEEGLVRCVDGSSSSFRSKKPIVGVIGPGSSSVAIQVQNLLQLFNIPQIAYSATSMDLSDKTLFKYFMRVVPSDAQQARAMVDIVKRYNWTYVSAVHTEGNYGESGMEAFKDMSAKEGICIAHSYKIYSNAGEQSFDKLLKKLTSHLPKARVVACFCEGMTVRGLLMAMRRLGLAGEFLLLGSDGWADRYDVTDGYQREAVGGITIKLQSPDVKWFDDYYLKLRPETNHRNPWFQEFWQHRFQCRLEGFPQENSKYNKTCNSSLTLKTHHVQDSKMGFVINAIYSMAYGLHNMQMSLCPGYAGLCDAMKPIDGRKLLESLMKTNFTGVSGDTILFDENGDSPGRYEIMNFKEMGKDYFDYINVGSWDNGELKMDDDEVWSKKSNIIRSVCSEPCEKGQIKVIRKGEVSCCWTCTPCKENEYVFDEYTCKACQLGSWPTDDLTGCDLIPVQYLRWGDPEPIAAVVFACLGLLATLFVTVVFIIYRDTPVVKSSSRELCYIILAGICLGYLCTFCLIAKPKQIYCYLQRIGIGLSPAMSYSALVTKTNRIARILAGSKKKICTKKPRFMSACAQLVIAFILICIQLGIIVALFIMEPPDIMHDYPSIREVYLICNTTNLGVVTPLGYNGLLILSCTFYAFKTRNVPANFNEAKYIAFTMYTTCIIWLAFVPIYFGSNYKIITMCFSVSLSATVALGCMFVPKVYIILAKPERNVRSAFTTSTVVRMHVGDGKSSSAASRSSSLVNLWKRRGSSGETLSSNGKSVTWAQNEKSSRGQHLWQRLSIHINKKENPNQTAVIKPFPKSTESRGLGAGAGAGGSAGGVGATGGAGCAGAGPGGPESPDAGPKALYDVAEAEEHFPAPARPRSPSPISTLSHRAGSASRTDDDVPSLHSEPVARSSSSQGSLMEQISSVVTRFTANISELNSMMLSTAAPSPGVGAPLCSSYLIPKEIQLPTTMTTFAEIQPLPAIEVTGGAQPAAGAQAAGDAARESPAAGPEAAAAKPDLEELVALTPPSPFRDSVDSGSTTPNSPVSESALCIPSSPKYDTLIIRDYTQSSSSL

The term Emax denotes the maximal effect, on the per cent scale that the assay sets. With `CC1(CN2CCn3nc(OCc4ccccc4)cc3C2=O)COC1` [Example B55], the Emax in data set [1] is 37%.

What is called EC50 is the concentration at which the effect is half-maximal. By melting point is commonly meant the temperature of the solid-liquid transition. For `COc1nccc(N2CCn3nc(OCc4ccccc4)cc3C2=O)n1` [Example B2, 2-(benzyloxy)-5-(2-methoxypyrimidin-4-yl)-6,7-dihydropyrazolo[1,5-a]pyrazin-4(5H)-one], the melting point stood at 160.6 °C. For the same compound, in data set [1], the maximal response (Emax) worked out at 57% and the EC50 is 661 nM.

On to `COc1cccc(CN2CCn3nc(OCc4ccccc4)cc3C2=O)c1Cl` [Example B67], for which, in data set [1], the maximal effect (Emax) stood at 63% and the EC50 was 115 nM.

`O=C1c2cc(OCc3ccccc3)nn2CCN1c1ccc(F)cn1` [Example B16] displayed a melting point of 145.5 °C. For the same compound, in data set [1], the Emax was 45% and the EC50 was greater than 10000 nM.

In turn, `O=C1c2cc(OCc3ccncc3)nn2CCN1c1ccc(F)cc1` [Example B31] had a melting point of 172.9 °C. Also, in data set [1], the maximum response (Emax) turned out to be 26% and the EC50 is greater than 30200 nM.

For the compound `Cc1cccc(COc2cc3n(n2)CCN(c2ccc(F)cc2)C3=O)n1` [Example B36], the melting point was determined as 158.5 °C. For the same compound, in data set [1], the Emax stood at 27% and the concentration giving a half-maximal response (EC50) was greater than 30200 nM.

Turning to `Cc1nccc(N2CCn3nc(OCc4ccccc4)cc3C2=O)n1` [Example B19], the melting point amounted to 182.8 °C. In addition, in data set [1], the Emax amounted to 47% and the EC50 is 871 nM.

As to `O=C1c2cc(OCc3ccccc3)nn2CCN1CC1CC1` [Example B44, 2-(benzyloxy)-5-(cyclopropylmethyl)-6,7-dihydropyrazolo[1,5-a]pyrazin-4(5H)-one], in data set [1], the maximal response (Emax) stood at 26% and the EC50 was no less than 30200 nM.

In turn, `Cc1cccc(N2CCn3nc(OCc4ccccc4)cc3C2=O)n1` [Example B14] registered a melting point of 152.1 °C. In data set [1], the Emax was 53% and the EC50 is 174 nM.

Compound `O=C1c2cc(OCc3ccccc3)nn2CCCN1c1ccc(F)cc1` [Example B49, 2-(benzyloxy)-5-(4-fluorophenyl)-5,6,7,8-tetrahydro-4H-pyrazolo[1,5-a][1,4]diazepin-4-one] yielded a melting point of 140.2 to 140.7 °C. In data set [1], the Emax was determined as 47% and the EC50 was 550 nM.

On to `O=C1c2cc(OCc3ccccc3)nn2CCN1CC1CC(F)(F)C1` [Example B71], for which, in data set [1], the maximum response (Emax) turned out to be 59% and the EC50 is 692 nM.

Turning to `C[C@@H]1Cn2nc(OCc3ccccc3)cc2C(=O)N1c1ccc(F)cc1` [Example B9], the melting point is 229.9 °C. Besides, in data set [1], the maximal response (Emax) turned out to be 52% and the EC50 is 87.1 nM.

Consider `COc1cc(CN2CCn3nc(OCc4ccccc4)cc3C2=O)ccc1F` [Example B69], for which the melting point was 115.1 °C. Moreover, in data set [1], the Emax amounted to 63% and the EC50 is 692 nM.

The compound `O=C1c2cc(OCc3ccccc3)nn2CCN1c1ccncc1` [Example B13] had a melting point of 167.2 °C. Further, in data set [1], the maximal response (Emax) came out at 37% and the EC50 is greater than 10000 nM.

Compound `COc1cc(N2CCn3nc(OCc4ccccc4)cc3C2=O)ccc1F` [Example B8] had a melting point of 145.3 °C. In data set [1], the Emax came out at 45% and the EC50 was 132 nM.

`O=C1c2cc(OCc3ccccc3)nn2CCN1CC1CC1(F)F` (centres unmarked) [Example B72]: the melting point turned out to be 107.4 °C. In data set [1], the maximal effect (Emax) was 21% and the EC50 was greater than 30200 nM.

On to `N#Cc1cccc(COc2cc3n(n2)CCN(c2ccc(F)cc2)C3=O)c1` [Example B27], for which the melting point stood at 147.9 °C. In data set [1], the maximum response (Emax) worked out at 31% and the EC50 was 148 nM.

Regarding `O=C1c2cc(OCc3ccccc3)nn2CCCN1c1ccc(F)cn1` [Example B50, 2-(benzyloxy)-5-(5-fluoropyridin-2-yl)-5,6,7,8-tetrahydro-4H-pyrazolo[1,5-a][1,4]diazepin-4-one], the melting point lay in the range of 112.1 to 119.1 °C. Also, in data set [1], the maximum response (Emax) was 25% and the EC50 was greater than 10000 nM.

With `COc1cc(F)cc(CN2CCn3nc(OCc4ccccc4)cc3C2=O)c1` [Example B63], in data set [1], the Emax worked out at 62% and the concentration giving a half-maximal response (EC50) was 646 nM.

In turn, `Cc1nc(N2CCCn3nc(OCc4ccccc4)cc3C2=O)ccc1F` [Example B51] gave a melting point of 114.6 to 116.1 °C. Besides, in data set [1], the Emax stood at 53% and the concentration giving a half-maximal response (EC50) is 363 nM.

On to `O=C1c2cc(OCc3ccc(F)cc3)nn2CCN1c1ccc(F)cc1` [Example B32], for which the melting point was found to be 155.8 °C. Further, in data set [1], the maximal response (Emax) was found to be 18% and the EC50 is greater than 30200 nM.

The compound `O=C1c2cc(OCc3ccccc3)nn2CCCN1CC1CC1` [Example B53, 2-(benzyloxy)-5-(cyclopropylmethyl)-5,6,7,8-tetrahydro-4H-pyrazolo[1,5-a][1,4]diazepin-4-one] gave a melting point of 68.1 to 68.4 °C. In data set [1], the maximal effect (Emax) came to 23% and the EC50 was 1320 nM.

The compound `O=C1c2cc(OCc3ccccc3)nn2CCN1c1cccc(F)c1` [Example B5] gave a melting point of 131.5 °C. For the same compound, in data set [1], the Emax worked out at 44% and the EC50 was 115 nM.

The compound `O=C1c2cc(OCc3ccccc3)nn2CCN1c1cccc(C2CC2)n1` [Example B3, 2-(benzyloxy)-5-(6-cyclopropylpyridin-2-yl)-6,7-dihydropyrazolo[1,5-a]pyrazin-4(5H)-one] registered a melting point of 146.2 °C. Besides, in data set [1], the Emax turned out to be 59% and the EC50 was 112 nM.

For the compound `C[C@@H]1Cn2nc(OCc3ccccc3)cc2C(=O)N1Cc1ccccc1` [Example B61], in data set [1], the Emax came out at 59% and the concentration giving a half-maximal response (EC50) was 257 nM.

The compound `COc1cccc(COc2cc3n(n2)CCN(c2ccc(F)cc2)C3=O)c1` [Example B33] showed a melting point of 105.1 °C. Besides, in data set [1], the Emax amounted to 18% and the concentration giving a half-maximal response (EC50) is greater than 30200 nM.

On to `O=C1c2cc(OCc3cccnc3)nn2CCN1c1ccc(F)cc1` [Example B35], for which, in data set [1], the maximal response (Emax) came to 12% and the half-maximal effective concentration (EC50) is greater than 30200 nM.

In turn, `COc1ccccc1COc1cc2n(n1)CCN(c1ccc(F)cc1)C2=O` [Example B29] had a melting point of 140.2 °C. In data set [1], the maximum response (Emax) is 36% and the concentration giving a half-maximal response (EC50) was 1200 nM.

For the compound `O=C1c2cc(OCc3ccccc3)nn2CCN1c1ccc(F)cc1` [Example B1, 2-(benzyloxy)-5-(4-fluorophenyl)-6,7-dihydropyrazolo[1,5-a]pyrazin-4(5H)-one], in data set [1], the maximal response (Emax) was determined as 54% and the EC50 is 182 nM.

Regarding `O=C1c2cc(OCc3ccccc3)nn2CCCN1CC1CC1(F)F` (centres unmarked) [Example B73], in data set [1], the maximal response (Emax) was determined as 20% and the EC50 was greater than 30200 nM.

Turning to `COc1ccc(F)cc1CN1CCn2nc(OCc3ccccc3)cc2C1=O` [Example B68], in data set [1], the Emax amounted to 58% and the EC50 was 178 nM.

On to `COc1cccc(CN2CCn3nc(OCc4ccccc4)cc3C2=O)c1F` [Example B66], for which, in data set [1], the Emax was 63% and the concentration giving a half-maximal response (EC50) is 363 nM.

Consider `O=C1c2cc(OCc3ccccn3)nn2CCN1c1ccc(F)cc1` [Example B34], for which, in data set [1], the Emax came to 23% and the EC50 is greater than 30200 nM.

Consider `CC1CN(Cc2ccccc2)C(=O)c2cc(OCc3ccccc3)nn21` (single isomer, unassigned) [Example B62], for which, in data set [1], the Emax stood at 61% and the EC50 is 102 nM.

In the case of `O=C1c2cc(OCc3ccccc3)nn2CCCN1Cc1ccccc1` [Example B58, 5-benzyl-2-(benzyloxy)-5,6,7,8-tetrahydro-4H-pyrazolo[1,5-a][1,4]diazepin-4-one], in data set [1], the maximum response (Emax) came out at 57% and the EC50 was 380 nM.

Turning to `O=C1c2cc(OCc3ccccc3)nn2CCN1CC1CCC1` [Example B56], in data set [1], the Emax came to 52% and the EC50 was 1070 nM.
